One assay deals with GIST T1 cells. Description: GIST T1 Cell Proliferation Assay. Conditions: Homo sapiens, GISTT1, 72 h, 68 hours + 4 hours resazurin. The format is cell-based. The procedure: (§1) GIST48, GIST430, and GIST882 cells were obtained from J. Fletcher (Brigham and Women's Hospital, Boston, MA). GIST T1 cells were obtained from B. Rubin (Cleveland Clinic, Cleveland, OH) and Professor Takahiro Taguchi (Kochi Medical School, Nankoku, Kochi, Japan). Briefly, GIST48 and GIST 882 cells were grown in RPMI 1640 medium supplemented with 15% characterized fetal bovine serum (Invitrogen, Carlsbad, CA), 1 unit/mL penicillin G, 1 µg/ml streptomycin, and 0.29 mg/mL L-glutamine at 37 °C, 5% CO2, and 95% humidity. GIST430 cells were grown in Ham's F10 medium supplemented with 15% characterized fetal bovine serum (Invitrogen, Carlsbad, CA), 30 mg/L bovine pituitary extract (BD Biosciences, San Jose, CA), 0.5% Mito+ serum extender (BD Biosciences, San Jose, CA), 1 unit/mL penicillin G, 1 µg/ml streptomycin, and 0.29 mg/mL L-glutamine at 37 °C, 5%CO2, 95% humidity. GIST T1 cells were grown in DMEM medium supplemented with 10% characterized fetal bovine serum (Invitrogen, Carlsbad, CA), 1 unit/mL penicillin G, 1 µg/ml streptomycin, and 0.29 mg/mL L-glutamine at 37 °C, 5% CO2, and 95% humidity.
A serial dilution of test compound was dispensed into a 384-well black clear bottom plate (Corning, Corning, NY). One thousand two-hundred fifty cells were added per well in 50 µL complete growth medium. Plates were incubated for 68 hours at 37 °C, 5% CO2, 95% humidity. At the end of the incubation period 10 µL of a 440 µM solution of resazurin (Sigma, St. Louis, MO) in PBS was added to each well and incubated for an additional 4 hours at 37 °C, 5% CO2, 95% humidity. Plates were read on a Synergy2 reader (Biotek, Winooski, VT) using an excitation of 540 nm and an emission of 600 nm.

The test system of assay [1] is Phospho-KIT (Tyr719). The experiment in a line: GIST48 KIT Western Blot. The format is cell-based. Conditions: GIST48 cells, 4 hours, serum-free medium; read-out: pKIT suppression by western blot analysi GIST48. The procedure:
as §1, with “Briefly, GIST48 and GIST 882 cells were grown in RPMI 1640 medium supplemented with 15% characterized fetal bovine serum (Invitrogen, Carlsbad, CA), 1 unit/mL penicillin G, 1 µg/ml streptomycin, and 0.29 mg/mL L-glutamine at 37 °C, 5% CO2, and 95% humidity.” left out
(§2) Two hundred fifty thousand cells were added per well in a 24-well tissue-culture treated plate. […] Medium was aspirated, cells were washed with PBS, and serum-free RPMI1640 medium was added. […] Cells were washed with PBS, then lysed. Cell lysates were separated by SDS-PAGE and transferred to PVDF. Phospho-KIT (Tyr719) was detected using an antibody from Cell Signaling Technology (Beverly, MA), ECL Plus detection reagent (GE Healthcare, Piscataway, NJ) and a Molecular Devices Storm 840 phosphorimager in fluorescence mode. Blots were stripped and probed for total KIT using an antibody from Santa Cruz Biotech (Santa Cruz, CA). IC50 values were calculated using Prism software (Graphpad, San Diego, CA).

Assay [2] concerns Phospho-KIT (Tyr719). The experiment in a line: GIST430 KIT Western Blot. Format: cell-based. To be noted: GIST430 cells, 4 hours, serum-free medium; read-out: pKIT suppression by western blot analysi GIST430. The procedure:
as §1, with “Briefly, GIST48 and GIST 882 cells were grown in RPMI 1640 medium supplemented with 15% characterized fetal bovine serum (Invitrogen, Carlsbad, CA), 1 unit/mL penicillin G, 1 µg/ml streptomycin, and 0.29 mg/mL L-glutamine at 37 °C, 5% CO2, and 95% humidity.” left out
as §2, with “One” for “Two”, “Ham's F10” for “RPMI1640”
(In western blotting, separated proteins are transferred to a membrane and probed.)

The next assay deals with T1, c-KIT D816V kinase (Homo sapiens, UniProt P10721, D816V).
T1 construct: residues T544-V976 with N-terminal GST fusion; purchased deCODE Biostructures
Description: c-KIT D816V kinase Assay. Conditions: enzymatic assay, ATP 200 uM. The format is biochemical. The method in brief:
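Coupled assay in which NADH oxidation was tracked as decreasing absorbance at 340 nm, continuously for 5 hours at 30 °C after adding serially diluted compound. Enzyme: cKit residues T544-V976 with N-terminal tag, GST fusion and TEV cleavage site.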

Another assay concerns the target c-KIT kinase (Homo sapiens, UniProt P10721). Description: c-KIT kinase Assay. The format is biochemical. Details: cKIT residues T544-V976; GST (N); TEV cleavage site (internal); purchased deCODE Biostructures. To be noted: enzymatic assay, ATP 200 µM; read-out: KIT (wt) IC50. The method in brief: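 This continuous spectrophotometric assay tracked c-KIT kinase turnover through NADH consumption at 340 nm, recorded for 2 hours at 30 °C. The enzyme construct from deCODE Biostructures carried an N-terminal tag, a GST-fusion sequence and a TEV cleavage site. Percent inhibition came from reaction rates over 0 to 1 h relative to a no-compound control, and IC50 values were derived with GraphPad Prism.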

A further assay has as its target T2, c-KIT V654A kinase (Homo sapiens, UniProt P10721, V654A).
T2 construct: residues T544-V976 with N-terminal GST fusion; purchased deCODE Biostructures
Description: c-KIT V654A Kinase Assay. Format: biochemical. Conditions: enzymatic assay, ATP 200 µM. The procedure, abridged: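 Kinase activity tracked by coupled NADH consumption, monitored continuously at 340 nm over 6 h at 30 °C after serially diluted compound was mixed in to start inhibition. Enzyme used was a GST-fused, N-terminally tagged cKIT T544–V976 construct with a TEV cleavage site.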

Another assay deals with T3, c-KIT T670I kinase (Homo sapiens, UniProt P10721, T670I).
T3 construct: The construct contains residues T544-V976 of cKit; GST (N); TEV cleavage site (internal); purchased deCODE Biostructures
Description: c-KIT T670I kinase assay. The format is biochemical. To be noted: enzymatic assay. The method in brief:
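Enzyme: GST-fused, N-terminally tagged cKit bearing T670I, with TEV cleavage site. Reaction started by mixing compound dilutions with reaction mix; activity read continuously over 5 h at 30 °C as loss of 340 nm absorbance from NADH consumption.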

The next assay deals with T4, c-KIT D816H kinase (Homo sapiens, UniProt P10721, D816H).
T4 construct: The construct contains residues T544-V976 of cKit; GST (N); TEV cleavage site (internal); purchased deCODE Biostructures
Description: c-KIT D816H Kinase Assay. Format: biochemical. Conditions: enzymatic assay, ATP 200 µM. The procedure, abridged: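 Mutant cKit enzyme, expressed as a GST-fusion construct carrying an N-terminal tag and TEV site, was mixed with serially diluted compound to start reactions. Activity tracked via NADH consumption, read continuously at 340 nm over 6 hours at 30 °C.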

T3 sequence (P10721 544-976 T670I): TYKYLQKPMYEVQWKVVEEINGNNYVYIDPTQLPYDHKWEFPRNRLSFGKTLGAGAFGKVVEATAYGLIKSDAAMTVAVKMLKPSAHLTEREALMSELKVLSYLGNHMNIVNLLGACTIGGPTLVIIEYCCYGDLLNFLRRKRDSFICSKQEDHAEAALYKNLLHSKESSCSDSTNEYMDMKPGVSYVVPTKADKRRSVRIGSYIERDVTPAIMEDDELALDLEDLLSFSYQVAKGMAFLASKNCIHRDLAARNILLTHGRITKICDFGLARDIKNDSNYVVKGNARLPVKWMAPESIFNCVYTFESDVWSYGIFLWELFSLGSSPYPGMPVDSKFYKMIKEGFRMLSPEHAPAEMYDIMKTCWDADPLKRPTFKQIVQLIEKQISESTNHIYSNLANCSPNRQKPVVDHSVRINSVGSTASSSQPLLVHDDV
T2 sequence (P10721 544-976 V654A): as the sequence (P10721 544-976 T670I) above, with V111A, I127T counted along it
c-KIT kinase, sequence (P10721 544-976): as the sequence (P10721 544-976 T670I) above, with I127T counted along it
T1 sequence (P10721 544-976 D816V): as the sequence (P10721 544-976 T670I) above, with I127T, D273V counted along it
T4 sequence (P10721 544-976 D816H): as the sequence (P10721 544-976 T670I) above, with I127T, D273H counted along it

Turning to `CCn1c(=O)c(-c2cc(NC(=O)Nc3ccccc3)c(F)cc2F)cc2cnc(NC(C)=O)cc21` [Example 66, 1-(5-(7-acetamido-1-ethyl-2-oxo-1,2-dihydro-1,6-naphthyridin-3-yl)-2,4-difluorophenyl)-3-phenylurea], the IC50 in the assay with GIST T1 cells was below 10 nM; in the assay on Phospho-KIT (Tyr719) [1] it was 100 to 1000 nM; in the assay with Phospho-KIT (Tyr719) [2], 10 to 100 nM.
`CCn1c(=O)c(-c2cc(NC(=O)Nc3cc(F)ccc3F)c(F)cc2Cl)cc2cnc(NC)cc21` [Example 68, 1-(4-chloro-5-(1-ethyl-7-(methylamino)-2-oxo-1,2-dihydro-1,6-naphthyridin-3-yl)-2-fluorophenyl)-3-(2,5-difluorophenyl)urea]: the IC50 was 10 to 100 nM on c-KIT D816V kinase; below 10 nM on c-KIT kinase; 10 to 100 nM on c-KIT V654A kinase; below 10 nM in the assay on GIST T1 cells; 100 to 1000 nM with Phospho-KIT (Tyr719) [1]; 10 to 100 nM at c-KIT T670I kinase. In addition, the IC50 in the assay on Phospho-KIT (Tyr719) [2] is 10 to 100 nM.
Turning to `CCn1c(=O)c(-c2cc(NC(=O)Nc3ccccc3)c(F)cc2Cl)cc2cnc(NCCCN(C)C)cc21` [Example 30, 1-(4-chloro-5-(7-(3-(dimethylamino)propylamino)-1-ethyl-2-oxo-1,2-dihydro-1,6-naphthyridin-3-yl)-2-fluorophenyl)-3-phenylurea], the IC50 in the assay on Phospho-KIT (Tyr719) [1] lay in the range of 100 to 1000 nM; in the assay with Phospho-KIT (Tyr719) [2], 10 to 100 nM.
On to `CCn1c(=O)c(-c2cc(NC(=O)Nc3cc(F)cc(F)c3)c(F)cc2F)cc2cnc(NC)cc21` [Example 63, 1-(3,5-difluorophenyl)-3-(5-(1-ethyl-7-(methylamino)-2-oxo-1,2-dihydro-1,6-naphthyridin-3-yl)-2,4-difluorophenyl)urea], for which the IC50 at c-KIT D816V kinase is 10 to 100 nM; on c-KIT kinase, below 10 nM; on c-KIT V654A kinase it was below 10 nM; in the assay on GIST T1 cells, below 10 nM; with Phospho-KIT (Tyr719) [1], 100 to 1000 nM; at c-KIT T670I kinase it was 10 to 100 nM. The IC50 with Phospho-KIT (Tyr719) [2] lay in the range of 10 to 100 nM.
Turning to `CCn1c(=O)c(-c2cc(NC(=O)Nc3ccccc3)c(F)cc2Cl)cc2cnc(N)cc21` [Example 21, 1-(5-(7-amino-1-ethyl-2-oxo-1,2-dihydro-1,6-naphthyridin-3-yl)-4-chloro-2-fluorophenyl)-3-phenylurea], the figures for the IC50 with GIST T1 cells, with Phospho-KIT (Tyr719) [1] and in the assay on Phospho-KIT (Tyr719) [2] were below 10 nM, 10 to 100 nM and below 10 nM, respectively.
On to `CCn1c(=O)c(-c2cc(NC(=O)Nc3cc(F)cc(CN4CCN(C)CC4)c3)c(F)cc2Cl)cc2cnc(NC)cc21` [Example 88, 1-(4-chloro-5-(1-ethyl-7-(methylamino)-2-oxo-1,2-dihydro-1,6-naphthyridin-3-yl)-2-fluorophenyl)-3-(3-fluoro-5-((4-methylpiperazin-1-yl)methyl)phenyl)urea], for which the IC50 in the assay with GIST T1 cells was below 10 nM; in the assay on Phospho-KIT (Tyr719) [1], 10 to 100 nM; in the assay on Phospho-KIT (Tyr719) [2] it was 10 to 100 nM.
`CCn1c(=O)c(-c2cc(NC(=O)Nc3cc(F)cc(F)c3)c(F)cc2C)cc2cnc(NC(=O)N(C)C)cc21` [Example 108, 3-(3-(5-(3-(3,5-difluorophenyl)ureido)-4-fluoro-2-methylphenyl)-1-ethyl-2-oxo-1,2-dihydro-1,6-naphthyridin-7-yl)-1,1-dimethylurea]: the IC50 on c-KIT D816V kinase is 10 to 100 nM; at c-KIT kinase, 10 to 100 nM; on c-KIT V654A kinase, 100 to 1000 nM; on c-KIT D816H kinase, 10 to 100 nM; in the assay on Phospho-KIT (Tyr719) [1], 100 to 1000 nM; on c-KIT T670I kinase it was 10 to 100 nM. Besides, in the assay on Phospho-KIT (Tyr719) [2], the IC50 fell in the range of 10 to 100 nM.
For `CCn1c(=O)c(-c2cc(NC(=O)Nc3ccccc3)c(F)cc2Br)cc2cnc(NC(C)=O)cc21` [Example 53, 1-(5-(7-acetamido-1-ethyl-2-oxo-1,2-dihydro-1,6-naphthyridin-3-yl)-4-bromo-2-fluorophenyl)-3-phenylurea], the IC50 in the assay on GIST T1 cells was below 10 nM; with Phospho-KIT (Tyr719) [1], 100 to 1000 nM; in the assay with Phospho-KIT (Tyr719) [2], below 10 nM.
In the case of `CCn1c(=O)c(-c2cc(NC(=O)Nc3cccc(Cl)c3)c(F)cc2F)cc2cnc(NC)cc21` [Example 17, 1-(3-chlorophenyl)-3-(5-(1-ethyl-7-(methylamino)-2-oxo-1,2-dihydro-1,6-naphthyridin-3-yl)-2,4-difluorophenyl)urea], the IC50 in the assay on Phospho-KIT (Tyr719) [1] and with Phospho-KIT (Tyr719) [2] was 10 to 100 nM each time.
On to `CCn1c(=O)c(-c2cc(NC(=O)Nc3cccc(CN4CCN(C)CC4)c3)c(F)cc2Cl)cc2cnc(NC)cc21` [Example 79, 1-(4-chloro-5-(1-ethyl-7-(methylamino)-2-oxo-1,2-dihydro-1,6-naphthyridin-3-yl)-2-fluorophenyl)-3-(3-((4-methylpiperazin-1-yl)methyl)phenyl)urea], for which the IC50 in the assay with GIST T1 cells is below 10 nM; in the assay on Phospho-KIT (Tyr719) [1], 10 to 100 nM; in the assay with Phospho-KIT (Tyr719) [2] it was 10 to 100 nM.
Take `CNc1cc2c(cn1)cc(-c1cc(NC(=O)Nc3cccc(F)c3)c(F)cc1C)c(=O)n2C(C)C` [Example 41, 1-(2-fluoro-5-(1-isopropyl-7-(methylamino)-2-oxo-1,2-dihydro-1,6-naphthyridin-3-yl)-4-methylphenyl)-3-(3-fluorophenyl)urea]: the IC50 was 10 to 100 nM on c-KIT D816V kinase; below 10 nM at c-KIT kinase; 10 to 100 nM at c-KIT V654A kinase; below 10 nM on c-KIT D816H kinase; 100 to 1000 nM with Phospho-KIT (Tyr719) [1]; above 1000 nM on c-KIT T670I kinase. In addition, in the assay with Phospho-KIT (Tyr719) [2], the IC50 was 10 to 100 nM.
